Test results: US20150004144A1, “DIFFERENTIATION INTO BROWN ADIPOCYTES” (THE GENERAL HOSPITAL CORPORATION, priority 2011, published 2015)

Tests used:
hPSC-derived adipocytes [1] = assay: Cellular OCR and ECAR (extracellular flux analyzer); format: cell-based, human; conditions: all cell types; 5 μM antimycin A after oligomycin and CCCP
Procedure: To further distinguish between white and brown adipocytes at a functional level, the characterization was extended to the mitochondrial function of our cells. […] Compounds were then injected that modulate mitochondrial function sequentially and the effect on OCR and ECAR was measured after the addition of each compound. Oligomycin was first administered to determine ATP turnover and the degree of proton leak. […] After the addition of the electron transport chain decoupler carbonyl cyanide m-chlorophenylhydrazone (CCCP), the maximal respiratory capacity was measured. […] Finally, antimycin was administered to inhibit the flux of electrons through complex III and prevent oxygen consumption by the cytochrome c oxidase in the mitochondria.
Measurement of cellular OCR and ECAR. Cells were plated in gelatin-coated XF24-well cell culture microplates (Seahorse Bioscience) and differentiated into adipocytes. Cells were incubated in prewarmed unbuffered DMEM medium (DMEM containing 2 mM GlutaMax, 1 mM sodium pyruvate, 1.85 g/l NaCl, and 25 mM glucose) for 1 hour. The oxygen consumption was measured by the XF24 Extracellular Flux Analyzer (Seahorse Biosciences). […] OCR and ECAR were determined by plotting the oxygen tension and acidification of the medium in the chamber as a function of time and normalized by protein concentration (pmol/min/mg and mpH/min/mg), respectively.

hPSC-derived adipocytes [2] = assay: Lipolysis assay (glycerol release); conditions: PPARG2-programmed, differentiated ADSVCs and MPCs; ADSVCs P=0.01, MPCs P=0.002; n=3
Procedure: Lipolysis assay. […] The culture media was collected for glycerol measurement using the Free Glycerol reagent (Sigma #F6428). Protein concentrations used to normalize glycerol content were measured using the Bradford protein assay (BioRad). Glycerol release was expressed in μg glycerol per mg total protein or the lowest value is set to 1.

pAKT(S473) = assay: Western blot of insulin-induced AKT phosphorylation; format: cell-based, human; conditions: programmed white adipocytes, vs basal starved state
Procedure: Finally, it was determined whether the programmed white adipocytes respond to insulin in a manner similar to mature primary white adipocytes. […] Insulin response was examined by assessing protein expression levels of AKT and phosphorylated AKT [pAKT(S473)] (FIG. 4D).
Western blot analysis. Western blot analysis was carried out using following antibodies: total AKT (Cell signaling #9272), phospho-Ser 473 AKT (Cell signaling #9271), Lamin A/C (Fisher/Millipore #3211).

[3] = test system: BJ RiPS MPC derived adipocytes; assay: Glucose uptake assay ([3H]-2-deoxy-D-glucose); format: cell-based, human; conditions: 100 nM insulin 30 min; P=0.05 unprogrammed, P=0.0007 PPARG2-programmed cells
Procedure: Glucose uptake assay. Adipocytes were serum-starved in 0.2% BSA DMEM overnight. Then, cells were incubated in KRH buffer (121 mM NaCl, 4.9 mM KCl, 1.2 mM MgSO4, 0.33 mM CaCl2, 12 mM HEPES, pH7.4) in the absence or presence of 100 nM insulin for 30 min at 37° C., followed by washing three times in KRH buffer. Glucose uptake was measured by incubating cells with 0.5 μCi/ml 2-deoxy-D-[3H] glucose (Perkin-Elmer) for 5 min at 37° C. After cold PBS washing three times, cells were lysed with 1% Triton X-100 solution and subjected to scintillation counting. Non-specific uptake was measured in the presence of 10 μM of cytochalasin B and subtracted from total uptake.

antimycin
OCR after antimycin (hPSC-derived adipocytes [1]): dropped to post-oligomycin levels

CC(C)NCC(O)c1ccc(O)c(O)c1 (stereo not shown) [isoproterenol]
release of glycerol after isoproterenol (hPSC-derived adipocytes [2]): breakdown of triglycerides and release of glycerol

insulin: insulin (Sigma)
pAKT(S473) after insulin (pAKT(S473)): robustly upregulated pAKT(S473)
glucose uptake after exposure to insulin [3]: significant increase in the glucose uptake
